In general, IC50 refers to the midpoint of a concentration-inhibition curve.

Results on 1 compound are retold here after US12527782B2, “Use of hexokinase 2/mitochondria-detaching compounds for treating hexokinase-2 (HK2)-expressing cancers” (Vidac Pharma Ltd., priority 2016, dated 2026).

Series [1] deals with Skin SCC SKXF 1834. Briefly: CFA, SKXF 1834. Type of series: cell-based, human. The conditions noted are these: PDX/CFA. As to the method: (§1) CFA was performed by Charles River Laboratories (Freiburg, Germany) in 96-well plate format according to a modified two-layer soft agar assay. The origin of the tumor xenografts has been described (Fiebig et al. 1989, incorporated herein by reference). The list of tumors used in this study is detailed in Table 1.

The subject of series [2] is Breast MAXF MDA-MB-231. Nature of the series: CFA, MAXF MDA-MB-231. Particulars: Cell line/CFA. It counts as cell-based, human. As for the experimental part:
as §1

The target of series [3] is T1, VDAC1/HK1 complex (Homo sapiens, UniProt P19367).
T1 construct: host or cells: E. coli (HK1); sheep liver mitochondria (VDAC1)
Nature of the series: Microscale Thermophoresis (MST) dissociation of VDAC1/HK1 complex. It counts as binding. Particulars: cell-free MST. As to the method:
(§2) A431 (human skin SCC), HT-297.T (human AK), and HaCaT transformed normal keratinocyte cell lines were from ATCC (Manassas, VA) and were maintained in DMEM supplemented with 10% FCS, 4 mM L-Gln, 1 mM sodium pyruvate, 100 U/mL penicillin, 1 μg/mL streptomycin. Human HK1 and HK2 plasmids were purchased from Addgene (Cambridge, MA) and were purified from E. Coli. VDAC1 was purified from sheep liver mitochondria as described (Arbel et al. 2012, incorporated herein by reference). Human skin tissue microarray (SK208 and SK 805) were purchased from US Biomax Inc. (Rockville, MD).
Studies were conducted on Nanotemper Monolith NT.115 (Munich, Germany). HK1 and HK2 were labeled using Monolith™ NT.115 Protein Labeling Kit BLUE-NHS. As a preliminary study to form the VDAC1-HK complexes, various concentrations of VDAC1 were added to 67 nM HK1 or 71 nM HK2. The preferred VDAC1 concentration was determined to be 1.5 μM. For dissociation studies, HKs were pre-incubated with VDAC1 for 10 minutes and various concentrations of Formula C were added for an additional 10 minutes. MST default parameters were used and analysis was with Nanotemper analysis software. […]
The activity of Formula C in a cell-free assay was evaluated using Microscale Thermophoresis (MST) analysis, which is based on altered movement of a protein in a temperature gradient when bound to other molecules. […]
For orientation: Microscale thermophoresis detects binding through changes in fluorescence in a small temperature gradient.

Series [4] in a line: Phase 1a single topical application, safety and tolerability. Particulars: healthy volunteers. It counts as in vivo, human. As to the method: The Phase 1a clinical trial was a randomized, double-blinded, placebo-controlled, dose-escalation study in healthy older-adult volunteers to evaluate the safety, tolerability, and pharmacokinetics of a single topical dermal application of Formula C ointment. The study was conducted under FDA IND in a Phase 1 unit in the United States.
Fifteen healthy volunteers, aged 35-70, were sequentially assigned to 1 of 3 consecutive treatment cohorts (5%, 10% or 20% Formula C ointment, respectively). Five subjects were randomized in a double-blind fashion in each dose cohort: 4 subjects received active Formula C ointment and 1 received matched placebo (0% Formula C; vehicle control). The study ointment (250 mg) was applied once to a 25 centimeter squared area of skin on the forehead of each volunteer.

The test system of series [5] is Leukemia (ALL) LEXFAL CCRF-CEM. Briefly: CFA, LEXFAL CCRF-CEM. It counts as cell-based, human. Particulars: Cell line/CFA. As to the method:
as §1

Series [6] deals with Cutanous T cell lymphoma Hut-78. Briefly: XTT cell viability assay, Hut-78. Particulars: Cell line/XTT. It counts as cell-based, human. As to the method:
(§3) For XTT assays, cells were plated in 96-well plates (5,000 cells per well) for 24 hours. Cells were then incubated with different concentrations of Formula C in triplicates for 72 hr in DMEM supplemented with 0.5% FCS and 5 mM Glucose. Cell viability was evaluated using 2,3-bis-(2-methoxy-4-nitro-5-sulfophenyl)-2H-tetrazolium-5-carboxanilide (XTT)-based colorimetric assay kit (Biological Industries Ltd., Kibbutz Beit-Haemek, Israel). The optical density was measured by an Infinite 200 ELISA reader at 450 nm and reference was measured at 630 nm (Tecan, Männedorf, Switzerland).
(Tetrazolium dyes change colour on reduction, which living cells bring about.)

In series [7] the test system is Breast MAXF 401. Briefly: CFA, MAXF 401. Type of series: cell-based, human. The conditions noted are these: PDX/CFA. As for the experimental part:
as §1

Series [8] relates to HT-297.T Actinic keratosis cells. Nature of the series: XTT cell viability assay, HT-297.T. It counts as cell-based, human. The conditions noted are these: Actinic keratosis HT-297.T; Cell line/XTT; 72 hr. As to the method: as §2, §3
Series [9] deals with CTCL cell line Hut-78. Nature of the series: PrestoBlue cell viability, Hut-78. Type of series: cell-based, human. The conditions noted are these: 72 hours. As for the experimental part:
(§4) Cutaneous T-cell lymphoma (CTCL) cell lines MJ and Hut78 were purchased from ATCC (CRL-8294, and TIB-161, respectively). Cells were grown in Iscove's Modified Dulbecco's Media supplemented with 2 mM L-glutamine, 10% fetal bovine serum, 100 U/mL of penicillin and 0.1 mg/mL of streptomycin.
(§5) Cells (1-2×10^4) were seeded in 96-well plates and treated with Formula C. Cell viability was determined 72 hours later using PrestoBlue reagent according to manufacturer's instruction (Life Technologies). The percentage of viability was expressed according to the fluorescence emitted by Formula C-treated cells compared to DMSO-treated control cells. The florescence emission values at 590 nm were measured with the plate-reader Spark 10M—multimode microplate reader (TECAN).

Series [10] deals with Cutanous T cell lymphoma MJ. Briefly: XTT cell viability assay, MJ. Type of series: cell-based, human. The conditions noted are these: Cell line/XTT. As for the experimental part: as §3
Series [11] has as its system Lung (NSCLC, adeno) LXFA 629. Briefly: CFA, LXFA 629. It counts as cell-based, human. Particulars: PDX/CFA. As to the method:
as §1

Series [12] deals with Lung (NSCLC, adeno) LXFA 749. Nature of the series: CFA, LXFA 749. Type of series: cell-based, human. The conditions noted are these: PDX/CFA. As for the experimental part: as §1
Series [13] has as its system Breast MAXF 574. Briefly: CFA, MAXF 574. Type of series: cell-based, human. Particulars: PDX/CFA. As for the experimental part:
as §1

The subject of series [14] is Leukemia (AML) LEXFAM MV4-11. Nature of the series: CFA, LEXFAM MV4-11. It counts as cell-based, human. Particulars: Cell line/CFA. As for the experimental part: as §1
For series [15], the system named is Cutanous T cell lymphoma HH. Briefly: XTT cell viability assay, HH. Type of series: cell-based, human. The conditions noted are these: Cell line/XTT. As for the experimental part: as §3
Series [16] concerns CTCL cell line MJ. Briefly: PrestoBlue cell viability, MJ. Particulars: 72 hours, read-out: absolute IC50, cell viability. It counts as cell-based, human. As for the experimental part:
as §4, §5

In series [17] the test system is Pancreas PAXF Mia-Pa-Ca-2. Briefly: CFA, PAXF Mia-Pa-Ca-2. It counts as cell-based, human. The conditions noted are these: Cell line/CFA. As to the method: as §1

Each structure is given as a SMILES string.

T1 sequence (P19367 whole entry, one chain of several): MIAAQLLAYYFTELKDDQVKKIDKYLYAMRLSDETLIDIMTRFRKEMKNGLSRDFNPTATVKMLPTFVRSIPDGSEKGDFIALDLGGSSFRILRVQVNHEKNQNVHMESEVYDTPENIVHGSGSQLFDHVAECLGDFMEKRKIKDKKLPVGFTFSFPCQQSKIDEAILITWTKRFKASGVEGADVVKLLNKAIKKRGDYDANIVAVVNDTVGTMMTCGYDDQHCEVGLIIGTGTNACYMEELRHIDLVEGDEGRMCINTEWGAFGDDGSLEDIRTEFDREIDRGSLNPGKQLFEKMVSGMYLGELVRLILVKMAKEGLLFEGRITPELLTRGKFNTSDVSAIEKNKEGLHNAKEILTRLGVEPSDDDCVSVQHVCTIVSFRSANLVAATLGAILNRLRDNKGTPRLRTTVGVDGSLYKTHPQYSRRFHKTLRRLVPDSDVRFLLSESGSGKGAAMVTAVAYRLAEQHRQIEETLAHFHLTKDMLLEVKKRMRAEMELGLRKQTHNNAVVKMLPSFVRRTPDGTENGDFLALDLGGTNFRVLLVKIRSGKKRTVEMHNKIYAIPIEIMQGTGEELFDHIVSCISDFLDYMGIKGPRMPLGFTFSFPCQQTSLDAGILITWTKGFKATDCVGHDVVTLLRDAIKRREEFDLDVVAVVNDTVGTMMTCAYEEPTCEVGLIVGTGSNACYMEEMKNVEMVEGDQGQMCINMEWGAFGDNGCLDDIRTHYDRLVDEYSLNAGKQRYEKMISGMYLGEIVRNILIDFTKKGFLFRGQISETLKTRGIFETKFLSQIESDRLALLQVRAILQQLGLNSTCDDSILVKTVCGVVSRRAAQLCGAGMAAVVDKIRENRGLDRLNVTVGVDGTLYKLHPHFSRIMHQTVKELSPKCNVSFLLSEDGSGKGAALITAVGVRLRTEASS

`CC/C=C\CC1C(=O)CCC1CC(=O)Oc1cccc2cccnc12` (stereo not shown) [Formula C]: the IC50 was determined as 0.742 µM in series [1]; 1.7 µM in series [2]; 0.206 µM in series [5]; 1.06 µM in series [6]; 4.22 µM in [7]; 0.228 µM in [8]. Besides, the IC50 in series [9] was determined as 1.06 µM; in series [10], 1.47 µM; in series [11] it was 1.38 µM; in series [12], 1.7 µM; in [13], 5.41 µM; in series [14], 1.2 µM. In addition, the IC50 came out at 0.604 µM in series [15], 1.77 µM in series [16] and 1.97 µM in series [17]. In addition, the “effect on the VDAC1/HK1 complex” value in [3] is recorded as “no effect”. The “clinically significant changes at application sites, vital signs, physical examinations, clinical laboratory results, ECGs, Holter monitors” value in series [4] (single topical application) is on record as “No clinically significant changes”. The “severity and course of adverse events” value in series [4] (single topical application) is “mild, short-lived and reversible”. Also, in series [4] (single topical application of 250 mg 5%, 10% or 20% ointment to 25 cm2 forehead), the serious adverse events result is recorded as “No serious adverse events”.
